Data taken from patent US20080171710A1, “The Redox/Fyn/c-Cbl Pathway” (priority 2007, published 2008).

Experiments:
Fyn = molecular target: T1, Fyn (Rattus norvegicus, UniProt Q62844); assay type: cell-based
T1 construct: 250 μg of total cell lysates were immunoprecipitated with anti-Fyn antibody; endogenous in cells; host or cells: primary rat O-2A/OPCs
Procedure, shortened: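 Rat O-2A/OPC lysates (250 μg total protein) immunoprecipitated with anti-Fyn antibody. Washed Fyn immune complexes assayed for tyrosine kinase activity with a universal tyrosine kinase kit.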

O-2A/OPCs [1] = experiment: Clonal analysis of division and differentiation; assay type: cell-based, rat
Method: O-2A/OPCs purified from P7 rat optic nerve were plated in. poly-L-lysine-coated 25-cm^2 flasks at clonal density with DMBM medium in the presence of 10-ng/ml PDGF as previously described. After 24-h recovery, cells were treated with different toxicants, each for 3 d, until visual inspection and immunostaining was performed. NAC was added 1 h before exposure to other toxicants for NAC pretreatment, and NAC co-exists throughout the culture period. The numbers of O-2A/OPCs and oligodendrocytes in each clone were determined by counting under fluorescent microscope. […] Experiments were performed in triplicate in at least two independent experiments.

O-2A/OPCs [2] = experiment: In vitro BrdU incorporation assay; assay type: cell-based, rat
Procedure, shortened: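 Surface antigens stained on live or 2% paraformaldehyde-fixed cells; intracellular ones after ice-cold methanol (4 min) or 0.5% Triton (15 min). Fluorescent secondary antibodies applied for 20 min.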

Akt = assay type: cell-based, rat
Procedure, shortened: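 Cells deprived of PDGF-AA for 5 h, then re-exposed to PDGF-AA (10 ng/ml) for 1 h. Lysates in RIPA buffer resolved by SDS-PAGE and immunoblotted with phospho-specific and total Akt or Erk antibodies, detected by HRP chemiluminescence.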

Erk1/2 = assay type: cell-based, rat
[3] = tested on: NF-κB-luciferase reporter; experiment: NF-κB-luciferase reporter assay; assay type: cell-based, rat
Method: (§1) Cells were deprived of PDGF-AA for 5 h before re-exposure to PDGF-AA (10 ng/ml) for 1 h for Western blot or 6 h for luciferase assays of pathway activation. Transient transfection was performed using Fugene6 (Roche, Basel, Switzerland ) transfection solution according to the manufacturer's protocol. For the luciferase assay, cells seeded in 12-well plates were transfected with a reporter plasmid SRE-Luc(firefly) or NF-κB-Luc(firefly) (BD-Clontech, Palo Alto, Calif., United States) and an internal control plasmid pRLSV40-LUC. Analyses of luciferase activity were performed according to the protocol of the Dual Luciferase Assay System (Promega, Madison, Wis., United States), which uses an internal control of Renilla luciferase for quantification, and relative light units were measured using a luminometer.

PDGFRα [4] = assay type: cell-based, rat
EGFR = assay type: cell-based, rat
Procedure, shortened: (§2)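 Western blot of cell lysates or sonicated tissue in RAPI buffer, SDS-PAGE to PVDF, primary antibodies (phospho-Erk, phospho-Akt, receptor, phospho-tyrosine), HRP secondary and luminol detection. Signaling analysed in presence of the cognate ligand: EGF for EGFR, NT-3 for TrkC, HGF for c-Met.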

c-Met = assay type: cell-based, rat
Procedure, shortened: as §2

SRE-luciferase reporter = SRE-luciferase reporter assay; assay type: cell-based, rat
Method: as §1

PDGFRα [5] = experiment: PDGFRα phosphorylation (Western blot, anti-PDGFRα(pY742)); assay type: cell-based, rat
Excerpt: The cells were then collected and lysed for Western blotting. […] Cells were lysed for Western blot analysis using anti-PDGFRα(pY742) antibody. The membranes were de-probed and then re-probed with antibody against total PDGFRα and anti-β-tubulin antibody. […]
Anti-phosphorylated Erk monoclonal, anti-Erk monoclonal, anti-TrkC polyclonal anti-Fyn polyclonal, anti-EGFR polyclonal, anti-c-Met polyclonal, anti-phospho-tyrosine monoclonal, and anti-PDGFRα polyclonal antibodies were obtained from Santa Cruz Biotechnology (Santa Cruz, Calif., United States). Anti-c-Cbl monoclonal antibody was obtained from BD PharMingen (San Diego, Calif., United States). Anti-phosphorylated Akt monoclonal and anti-Akt polyclonal antibodies were obtained from Cell Signaling Technology (Beverly, Mass., United States). Anti-phosphorylated PDGPRα polyclonal antibody was obtained from Biosource (Carlsbad, Calif., United States). The cell culture samples were collected and lysed in RAPI buffer, whereas dissected tissue samples were sonicated in RAPI buffer. Samples were resolved on SDS-PAGE gels and transferred to PVDF membranes (PerkinElmer Life Science. Wellesley, Mass., United States), After being blocked in 5% skim milk in PBS containing 0.1% Tween 20, membranes were incubated with a primary antibody, followed by incubation with an HRP-conjugated secondary antibody (Santa Cruz Biotechnology). Membranes were visualized using Western Blotting Luminol Reagent (Santa Cruz Biotechnology). All analyses of signaling pathway components were conducted in the presence of ligand for the receptor pathway under analysis (either PDGF-AA for PDGFRα, NT-3 or TrkC, HGF for c-Met, or EGF for EGFR).

[6] = NAC 1 mM, PP1 100 nM or ICI 182,780 200 nM with TMX
[7] = 30 nM MeHg, 1 μM Pb, 5 μM paraquat

T1 sequence (Q62844 whole entry): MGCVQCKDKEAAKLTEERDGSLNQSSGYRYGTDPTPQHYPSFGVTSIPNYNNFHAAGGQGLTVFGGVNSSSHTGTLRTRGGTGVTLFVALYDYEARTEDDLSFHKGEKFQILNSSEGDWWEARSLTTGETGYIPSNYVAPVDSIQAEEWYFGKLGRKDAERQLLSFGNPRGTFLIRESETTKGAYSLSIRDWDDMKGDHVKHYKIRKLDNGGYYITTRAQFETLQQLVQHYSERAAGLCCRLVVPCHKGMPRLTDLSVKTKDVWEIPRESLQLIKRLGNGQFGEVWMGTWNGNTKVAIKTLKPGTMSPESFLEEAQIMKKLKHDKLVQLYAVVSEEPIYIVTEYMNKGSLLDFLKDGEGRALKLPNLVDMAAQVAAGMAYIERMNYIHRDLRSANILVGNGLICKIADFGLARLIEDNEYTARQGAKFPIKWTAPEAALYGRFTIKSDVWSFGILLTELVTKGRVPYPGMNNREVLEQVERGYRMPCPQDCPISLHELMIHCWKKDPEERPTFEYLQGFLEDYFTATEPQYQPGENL

CC(=O)N[C@@H](CS)C(=O)O [NAC, N-acetyl-L-cysteine]
effect on basal Fyn activity (Fyn; 1 mM NAC in the absence of toxicants): only a slight, insignificant effect
effect on TMX-induced activation of Fyn (Fyn; [6]): blocked
effect on MeHg-induced Fyn activation (Fyn; added 1 h before MeHg): blocked
effect on Pb- and paraquat-induced Fyn activation (Fyn; added 1 h before Pb or paraquat): blocked
effect on MeHg-induced suppression of cell division at the clonal level (O-2A/OPCs [1]; co-exposure with MeHg, 1 mM NAC or PP1): blocked
effect on TMX effect on cell proliferation (O-2A/OPCs [2]; with TMX, 2 days): blocked
effect on EtOH suppression of Akt phosphorylation (Akt; 1 mM NAC with EtOH): rescued
effect on MeHg suppression of Akt phosphorylation (Akt; 1 mM NAC with MeHg): rescued
effect on EtOH suppression of Erk1/2 phosphorylation (Erk1/2; 1 mM NAC with EtOH): rescued
effect on Aβ(1-42) suppression of PDGF-mediated Erk1/2 phosphorylation (Erk1/2; co-exposure with Aβ(1-42)): blocked
effect on MeHg-associated suppression of Erk1/2 phosphorylation (Erk1/2; co-treatment with MeHg): rescued
effect on Pb and paraquat effects on Erk1/2 phosphorylation (Erk1/2; co-treatment with Pb or paraquat): protected
effect on MeHg suppression of Nf-κB reporter activity ([3]; 1 mM NAC with MeHg): rescued normal level
effect on TMX-induced reductions in levels of PDGFRα (PDGFRα [4]; [6]): blocked
effect on EtOH-induced reduction of PDGFRα levels (PDGFRα [4]; NAC added 1 hr before EtOH): substantial rescue
effect on Aβ-induced reduction in PDGFRα levels (PDGFRα [4]; co-exposure with Aβ): blocked
effect on MeHg-induced reductions in levels of PDGFRα (PDGFRα [4]; together with MeHg): prevented
effect on Pb- and paraquat-induced reductions in levels of PDGFRα (PDGFRα [4]; together with Pb (1 μM) or paraquat (5 μM)): protected
effect on EtOH-induced reduction of EGFR levels (EGFR; NAC added 1 hr before EtOH): substantial rescue
effect on toxicant-associated reductions in EGFR levels (EGFR; NAC with MeHg, Pb, or paraquat): protected
effect on EtOH-induced reduction of c-Met levels (c-Met; NAC added 1 hr before EtOH): substantial rescue
effect on toxicant-associated reductions in c-Met levels (c-Met; NAC with MeHg, Pb, or paraquat): protected
effect on MeHg suppression of SRE reporter activity (SRE-luciferase reporter; 1 mM NAC with MeHg): rescued normal level
effect on MeHg-induced suppression of PDGFRα phosphorylation (PDGFRα [5]; co-exposure with MeHg): rescued

[CH3][Hg][Cl] [MeHg, methylmercury]
Fyn activation after toxicant exposure (Fyn; [7]): stimulated Fyn activation
clone composition (cell division at the clonal level) (O-2A/OPCs [1]; MeHg exposure, PDGF): reduction in the number of large clones and an increase in the number of small clones
drop in the percentage of O-2A/OPCs incorporating BrdU (O-2A/OPCs [2]; 20 nM MeHg, stimulation with PDGF): approximately 25%
PDGF-induced Akt phosphorylation (Akt; 30 nM MeHg, 24 h): decreased
NT-3-induced Erk1/2 phosphorylation (Erk1/2; 30 nM MeHg): no reduction in Erk1/2 phosphorylation
PDGF-induced Erk1/2 phosphorylation after toxicant exposure (Erk1/2; 30 nM MeHg 24 h, 1 μM Pb, 5 μM paraquat): reduced ERK1/2 phosphorylation
PDGF-induced NF-κB-luciferase reporter expression ([3]; 30 nM MeHg, 24 h): decreased
PDGFRα loss in the presence of cycloheximide (PDGFRα [4]; MeHg 20 nM plus cycloheximide, versus cycloheximide alone): further accelerated receptor loss
total levels of PDGFRα after toxicant exposure (PDGFRα [4]; MeHg 30 nM, 1 μM Pb, 5 μM paraquat): reduction in levels of the PDGFRα itself
levels of EGFR after toxicant exposure (EGFR; MeHg, Pb or paraquat): reductions
levels of c-Met after toxicant exposure (c-Met; MeHg, Pb or paraquat): reductions
NT-3-induced expression from SRE-luciferase reporter (SRE-luciferase reporter; 30 nM MeHg): no reduction in NT-3-induced expression
PDGF-induced SRE-luciferase reporter expression (SRE-luciferase reporter; 30 nM MeHg, 24 h): reduced expression
phosphorylation of PDGFRα after toxicant exposure (PDGFRα [5]; [7]): also reduced
